Data published in patent US20110269743A1, “PHENYLTHIOPHENYLDIHYDROBENZOTHIAZEPINE INHIBITORS OF STORE OPERATED CALCIUM RELEASE” (CalciMedica, Inc, priority 2008, published 2011).

Test system: JR251 or RBL cells
Assay: Fluorescence-based store-operated calcium entry assay, IC50 in JR251 or RBL cells
Assay type: cell-based
Conditions: in either JR251 or RBL cells, or both
Description: The day prior to performing the assay, RBL-2H3 cells are plated in 50 μL of complete medium in a 384 well plate. Cells are grown at 37° C./6% CO2 overnight and grow to 50-60% confluence by the next day. On the assay day, 1.5 μM Fluo-4-AM dye (Invitrogen) in complete medium is added and incubated for 1 hour at RT. Cells are washed twice in Ca^2+-free HBSS buffer and 35 μL Ca^2+-free HBSS buffer is added to each well. 10 μL of a test compound prepared in a Ca^2+-free HBSS solution at 4.5× of the desired concentration is added to a well and incubated for 5 minutes at RT. 10 μL of thapsigargin prepared in a Ca^2+-free HBSS solution at 5.5× of the desired concentration (5.5 uM) is added to each well and incubated for an additional 25 minutes. The initial baseline fluorescence signal is measured with a FLIPR^384 (Molecular Devices) plate reader. 5 μL of 12× calcium in HBSS (12 mM) is added and changes in cellular fluorescence are measured with the FLIPR^384 plate reader. In each well, the change in the fluorescent signal as a function of time due to calcium entry into the cell is determined by calculating the difference between the fluorescent signal measured 7 seconds after calcium addition and the initial baseline fluorescence signal at time zero (t=0). This parameter is designated Upslope. The IC50 value is calculated as the concentration at which 50% of the Upslope is inhibited.
The day prior to performing the assay, Jurkat E6-1 cells are seeded at a density of 2 million cells/mL in complete medium in a T-175 flask. Cells are grown at 37° C./6% CO2 overnight. On the following day, 1.5 μM Fluo-4-AM dye (Invitrogen) in complete medium is added and incubated for 1 hour at RT. Cells are harvested, washed twice in Ca^2+-free HBSS buffer and plated in 35 μL Ca^2+-free HBSS buffer in a 384 well plate. 10 μL of a test compound prepared in a Ca^2+-free HBSS solution at 4.5× of the desired concentration is added to a well and incubated for 5 minutes at RT. 10 μL of thapsigargin prepared in a Ca^2+-free HBSS solution at 5.5× of the desired concentration (5.5 uM) is added to each well and incubated for an additional 25 minutes. The initial baseline fluorescence signal is measured with a FLIPR^384 (Molecular Devices) plate reader. 5 μL of 12× calcium in HBSS (12 mM) is added and changes in cellular fluorescence are measured with the FLIPR^384 plate reader. In each well, the change in the fluorescent signal as a function of time due to calcium entry into the cell is determined by calculating the difference between the fluorescent signal measured 7 seconds after calcium addition and the initial baseline fluorescence signal at time zero (t=0). This parameter is designated Upslope. The IC50 value is calculated as the concentration at which 50% of the Upslope is inhibited.

SMILES	IC50 [µM]
FC(F)(F)c1ccc(C2CC(c3ccco3)=Nc3ccccc3S2)cc1 (centres unmarked) [(E)-4-(furan-2-yl)-2-(4-(trifluoromethyl)phenyl)-2,3-dihydrobenzo[b][1,4]thiazepine]	< 10
COc1ccc(C2CC(c3ccco3)=Nc3ccccc3S2)cc1 (centres unmarked) [(E)-4-(furan-2-yl)-2-(4-methoxyphenyl)-2,3-dihydrobenzo[b][1,4]thiazepine]	< 10
Cc1ccc(C2CC(c3ccco3)=Nc3ccccc3S2)cc1 (centres unmarked) [(E)-4-(furan-2-yl)-2-p-tolyl-2,3-dihydrobenzo[b][1,4]thiazepine]	< 10
Cc1ccc(C2CC(c3cccs3)=Nc3ccccc3S2)cc1 (centres unmarked) [(E)-4-(thiophen-2-yl)-2-p-tolyl-2,3-dihydrobenzo[b][1,4]thiazepine]	< 10

More lines, now with the values ahead:

IC50 [µM]	SMILES
< 10	Clc1ccc(C2CC(c3ccco3)=Nc3ccccc3S2)c(Cl)c1 (centres unmarked) [(E)-2-(2,4-dichlorophenyl)-4-(furan-2-yl)-2,3-dihydrobenzo[b][1,4]thiazepine]
< 10	COc1ccc(C2CC(c3ccco3)=Nc3ccccc3S2)c(OC)c1 (centres unmarked) [(E)-2-(2,4-dimethoxyphenyl)-4-(furan-2-yl)-2,3-dihydrobenzo[b][1,4]thiazepine]
< 10	Fc1ccccc1C1CC(c2ccco2)=Nc2ccccc2S1 (centres unmarked) [(E)-2-(2-fluorophenyl)-4-(furan-2-yl)-2,3-dihydrobenzo[b][1,4]thiazepine]
< 10	COc1ccc(C2CC(c3cccs3)=Nc3ccccc3S2)cc1OC (centres unmarked) [(E)-2-(3,4-dimethoxyphenyl)-4-(thiophen-2-yl)-2,3-dihydrobenzo[b][1,4]thiazepine]
< 10	FC(F)Oc1ccc(C2CC(c3ccco3)=Nc3ccccc3S2)cc1 (centres unmarked) [(E)-2-(4-(difluoromethoxy)phenyl)-4-(furan-2-yl)-2,3-dihydrobenzo[b][1,4]thiazepine]
< 10	FC(F)Oc1ccc(C2CC(c3cccs3)=Nc3ccccc3S2)cc1 (centres unmarked) [(E)-2-(4-(difluoromethoxy)phenyl)-4-(thiophen-2-yl)-2,3-dihydrobenzo[b][1,4]thiazepine]
< 10	Fc1ccc(C2CC(c3ccco3)=Nc3ccccc3S2)cc1 (centres unmarked) [(E)-2-(4-fluorophenyl)-4-(furan-2-yl)-2,3-dihydrobenzo[b][1,4]thiazepine]
< 10	Fc1ccc(C2CC(c3cccs3)=Nc3ccccc3S2)cc1 (centres unmarked) [(E)-2-(4-fluorophenyl)-4-(thiophen-2-yl)-2,3-dihydrobenzo[b][1,4]thiazepine]

Molecular target: STIM1 and Orai1 in HEK293 cells (Homo sapiens, UniProt Q96D31)
Assay: not given
Conditions: HEK293 cells coexpressing STIM1 and Orai1; cited from earlier work

Chain of STIM1 and Orai1 in HEK293 cells (Q96D31 whole entry): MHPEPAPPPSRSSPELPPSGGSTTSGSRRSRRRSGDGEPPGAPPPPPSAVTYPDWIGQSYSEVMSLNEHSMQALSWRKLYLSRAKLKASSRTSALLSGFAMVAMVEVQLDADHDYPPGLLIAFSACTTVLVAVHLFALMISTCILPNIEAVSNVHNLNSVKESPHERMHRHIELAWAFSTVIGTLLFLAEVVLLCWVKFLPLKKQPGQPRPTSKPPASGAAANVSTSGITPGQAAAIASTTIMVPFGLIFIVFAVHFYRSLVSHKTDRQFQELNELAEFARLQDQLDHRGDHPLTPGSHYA

SMILES	block of store-operated Ca2+ entry
NCCOB(c1ccccc1)c1ccccc1 [2-aminoethoxydiphenylborate]	completely blocked

Test system: Jurkat cells and colon cancer cells
Assay: not given
Conditions: cited from earlier work

SMILES	inhibition of SOCE and proliferation
Cc1nnsc1C(=O)Nc1ccc(-n2nc(C(F)(F)F)cc2C(F)(F)F)cc1 [BTP-2]	inhibits SOCE and proliferation
